# According to a melting point compilation (Tetko et al.; mined from patent text by program, amines drawn as free bases though some values may be those of a salt):
row,SMILES,melting point [°C]
1,COC(=O)C(NS(=O)(=O)c1ccc(-c2ccc(NC(=O)c3oc4cccc(C(C)OC)c4c3C)cc2)cc1)C(C)C (stereo unspecified),186 to 188
2,C#CC(C)(O)CCC=C(C)CCC=C(C)CCC=C(C)CCC=C(C)CCC=C(C)CCC=C(C)CCC=C(C)CCC=C(C)CCC=C(C)CCC=C(C)C (stereo unspecified),35.5 to 36.5
3,CCCOc1ccccc1-c1ccc(C#N)c(=S)[nH]1,127 to 128
4,COc1ccc(-c2c(-c3ccncc3)sc3nc(=O)cc(N)n23)cc1,267 to 271
5,N#Cc1cnc2cc(-c3ccc(CN4CCOCC4)cc3)sc2c1Nc1ccc(Oc2ccccc2)cc1,254 to 256
6,CCCOc1ccc(Cc2nn(-c3ccccc3Cl)c(=O)o2)cc1,68
7,OCCN1CCC(=C2c3sccc3CCn3ccnc32)CC1,155
8,O=c1ccn(C2OC(CO)C(O)C2Br)c(=O)[nH]1 (stereo unspecified),194 to 195
9,N#Cc1c(N)nc2ccccc2c1NCc1ccccc1,206
10,COc1ccc2c(n1)CCC(=NO)C2,124 to 126
11,C1=C(CCc2ccco2)CCN(Cc2n[nH]c3c2CCc2ccccc2-3)C1,205 to 208
12,CC(C)(C)OC(=O)NN1CCC(C(=O)O)CC1,133 to 135
13,CC(C)c1nn(-c2ccc(C#N)cn2)cc1CCCO,105 to 106
14,COC(=O)CCCC(N)=O,80
15,COc1cc(CN2N=C(c3ccc(OC)c(OC)c3)[C@@H]3CCCC[C@@H]3C2=O)cc(OC)c1 (relative stereo),114 to 117
16,COc1cc(OC)c2cnnc(Cl)c2c1,167
17,OC1CCCc2nc3cc(Cl)ccc3c(NCc3ccc(F)cc3)c21 (stereo unspecified),187 to 188

row,SMILES,melting point [°C]
1,CSC(=S)NN=Cc1nc(Cc2ccccc2)[nH]c1C,207 to 210
2,O=S(=O)(c1ccc2ccccc2c1)N1C[C@@H](S)C[C@@H]1COCc1ccccc1,79 to 80
3,CCCCOc1nc(N)c2[nH]c(=O)n(CCCCN(CCCN3CCCC3=O)Cc3cccc(CC(=O)OC)c3)c2n1,115 to 116
4,CCCCNc1ccc(Nc2ccccc2)c2c1C(=O)c1ccccc1C2=O,118 to 120
5,COc1ccc(-c2nc(C#N)c[nH]2)cc1,219 to 220
6,CON=C(c1cc(C)no1)c1ccccc1COc1ncc(C(F)(F)F)cc1Cl,77 to 79
7,CCOc1ccc2nc(N3CCN(c4nc(N)c5cc(OC)c(OC)cc5n4)CC3)nc-2cc1,> 250
8,NCc1cn2ccccc2n1,91 to 93
9,CSc1nc(Cl)c(-c2c(F)cc(F)cc2F)c(N2CCCC(C)O2)n1 (stereo unspecified),110 to 111
10,CS(=O)(=O)c1ccc(Oc2cc(OC3CCOCC3)c3[nH]c(C4=NCC(CCO)S4)cc3c2)cc1 (stereo unspecified),116 to 117
11,CCOCc1nc2c(N)nc3ccccc3c2n1CCOCCNC(=O)c1ccccc1,154 to 156
12,C#CCn1c(=O)c2c(nc(C#Cc3ccc(OC)c(OC)c3)n2C)n(CC)c1=O,222
13,CC1(C)OC(=O)C[C@H]2NC(=O)[C@H]21,180 to 182
14,Cc1cccc(O[C@@H]2CN(Cc3ccccc3)C[C@H]2O)c1C (relative stereo),100 to 104
15,COC1=CCC2=C(CC[C@@H]3[C@@H]2CC[C@@]2(C)[C@H]3CCC23CC(O)CO3)C1 (stereo partly specified),152 to 155
16,COc1ccc(-n2nc(CCCO)cc2-c2ccc(Cl)cc2)cc1,87.5 to 88
17,COC(=O)C1CCC2C3CCC4CC(C)(O)CCC4(C)C3C(=O)CC12C (stereo unspecified),150

# The next lines start with the values.
row,melting point [°C],SMILES
1,155 to 156,C=CCN(CC=C)Cc1c(-c2ccccc2)sc(N)c1C(=O)c1ccc(Cl)cc1
2,95 to 96,CN(C(=O)OC(C)(C)C)c1cc(Sc2cc(C(C)(C)C)c(O)c(C(C)(C)C)c2)ccc1N
3,127 to 130,CCCCNC(=O)c1cnc2cccc(C)n2c1=O
4,130 to 131,COc1cc([N+](=O)[O-])ccc1NC(=O)OCc1ccccc1
5,234 to 236,CC(=O)OCC(=O)Nc1cccc2c1C(=O)N(C1CCC(=O)NC1=O)C2=O (stereo unspecified)
6,50.2 to 52.7,O=C(CC(=O)C1CC1)c1ncc(Cl)cc1Cl
7,261 to 266,COc1ccc2c3c(c(Cl)nc2c1)C(=O)c1ccccc1-3
8,151 to 152,O=C(O)CCc1conc1-c1ccc(F)c(Br)c1
9,81 to 83,O=C1CCC(C2CO2)N1Cc1ccccc1Cl (stereo unspecified)
10,250 to 253,COc1cc2c3c(cccc3c1Br)C(=O)N(O)C2=O
11,105 to 106,Cc1ccc(Sc2ccccc2C(=O)N(C)C)c([N+](=O)[O-])c1
12,183 to 184,CC(C)(C)C(=O)Nc1ccccc1CC(O)c1ccccc1 (stereo unspecified)
13,189 to 192,O=C(Oc1cc(Cl)ccc1Cl)c1cc2ccccc2oc1=O
14,133 to 135,O=C(O)C(=O)c1ccc(OCCCC(=O)c2ccc3ccccc3c2)cc1
15,188 to 190,CC(C)(C)OC(=O)Cn1c(=O)n(S(=O)(=O)c2ccc(Cl)cc2)c(=O)c2ccc(Cl)cc21
16,211 to 212,COc1ccc(-n2cc(CCC(=O)NS(C)(=O)=O)c(-c3ccc(Cl)c(F)c3)n2)cc1Cl
17,175,CC(C(N)=O)c1ccc2c(c1)CCc1ccccc1C2=O (stereo unspecified)
18,192 to 194,CCCCc1cc2c(cc1/C=C/c1ccc(C(=O)O)cc1)C(C)(C)CCC2(C)C
19,214 to 215,O=C(O)c1ccc(O)c(C(O)C(Cl)Cl)c1 (stereo unspecified)

row,melting point [°C],SMILES
1,101 to 102,CC(=O)c1ccc(COC(=O)N2CCN(CC3(C)Cn4cc([N+](=O)[O-])nc4O3)CC2)cc1 (stereo unspecified)
2,152 to 155,CCC(CC)c1ccc(Cl)c2nc3n(c12)CCCCN3c1ccc(C)cc1Br
3,235 to 240,"CC(=O)N1CCc2cc(-c3ccc4c(c3)CCC3N(C)C(=O)CCC43C)cc([N+](=O)[O-])c21 (single isomer, unassigned; (+))"
4,164 to 165,COCCN1CC(C(=O)O)N(S(=O)(=O)c2ccc(OC)cc2)Cc2ccccc21 (stereo unspecified)
5,90 to 92,COc1ccc(Cn2nnnc2C(O)c2ccccc2C)cc1 (racemic)
6,115 to 120,CC(=O)C(=CS(=O)(=O)N(C)C)c1cccc([N+](=O)[O-])c1
7,295 to 298,NC(=O)C1CN(c2c(F)cc3c(=O)c(C(=O)O)cn(C4CC4)c3c2F)C1
8,80 to 83,C=CCNC(=O)n1nc(O)cc1C
9,230 to 232,O=C(O)c1c[nH]c(=S)n1C1Cc2cc(F)cc(F)c2C1 (stereo unspecified)
10,198 to 200,COC(=O)C1=CC=C(CC2=CCc3ccc(NC(=O)C(F)(F)F)cc32)C(OC)(OC)C1
11,120 to 123,COc1ncccc1NC(=O)Nc1ccc(N2CCN(C(=O)Nc3ccc(OCCO)cc3C(F)(F)F)CC2)cc1
12,229,C=C(C)n1cc(C(=O)O)c(=O)c2cc(F)c(Cl)cc21
13,44 to 45,CCOC(=O)c1c(CN(CC)CC)nc2n(Cc3ccccc3)c3ccccc3n12
14,178 to 179,CCOC(=O)C[C@@H](C)NC(=O)N[C@H]1CCN(c2ccc(C#N)cc2)C1=O
15,199 to 200,O=Cc1cccc2cc3c(cc12)sc1ccccc13
16,90,CCOC(=O)C(C(=O)Nc1nccs1)C(=O)c1cccc(C(F)(F)F)c1NC(=O)C(Cl)Cl (stereo unspecified)
17,93 to 94,CN(C)C(=O)C(Br)Cn1ccc(-c2ccccc2)n1 (stereo unspecified)
18,184,Oc1ccc(-n2nnnc2C2CC2)cc1
